Measurements taken from ChEMBL document CHEMBL3856189, “Synthesis of novel diterpenoid analogs with in-vivo antitumor activity” (Eur J Med Chem, 2016).
Calls of active or inactive are those of the source. The rule behind the calls is not given here.

Tests used:
[1] = test system: T47D; test: Induction of apoptosis in human T47D cells assessed as late apoptotic cells at 5 uM after 48 hrs by Annexin V-FITC/propidium iodide staining based flow cytometry (reference value: 2.72 %); assay type: functional
[2] = Antitumor activity against human T47D cells xenografted in nude mouse assessed as tumor volume at 40 mg/kg/day, ip administered daily for 18 days measured every 3 days during compound dosing (reference value: 1220 +/- 127 mm3); assay type: functional
[3] = test system: Mus musculus; test: Toxicity in nude mouse xenografted with human T47D cells assessed as body weight loss at 20 to 40 mg/kg/day, ip administered daily for 18 days measured every 3 days during compound dosing; assay type: organism-based; settings: in vivo
[4] = test system: Mus musculus; test: Toxicity in nude mouse xenografted with human T47D cells assessed as diarrhoea at 20 to 40 mg/kg/day, ip administered daily for 18 days; assay type: organism-based; settings: in vivo, 432 h
[5] = (§1) Antimigratory activity in human T47D cells assessed as inhibition of cell migration after 12 hrs by crystal violet staining based transwell migration assay; assay type: functional
[6] = test system: T47D; test: as §1; assay type: functional
[7] = Antitumor activity against human T47D cells xenografted in nude mouse assessed as tumor weight at 40 mg/kg/day, ip administered daily for 18 days measured every 3 days during compound dosing (reference value: 882 +/- 149 mg); assay type: functional
[8] = test system: MCF7; test: Selectivity index, ratio of IC50 for HAF cells to IC50 for human MCF7 cells; assay type: functional
[9] = test system: Mus musculus; test: Toxicity in nude mouse xenografted with human T47D cells assessed as organ damage at 20 to 40 mg/kg/day, ip administered daily for 18 days; assay type: organism-based; settings: in vivo, 432 h
[10] = Antiproliferative activity against human HCT116 cells after 96 hrs by SRB assay; assay type: functional, cell-based; settings: HCT-116, 96 h
[11] = Antiproliferative activity against human MDA-MB-231 cells after 96 hrs by SRB assay; assay type: functional, cell-based; settings: MDA-MB-231, 96 h
[12] = test system: T47D; test: Induction of apoptosis in human T47D cells assessed as early apoptotic cells at 5 uM after 48 hrs by Annexin V-FITC/propidium iodide staining based flow cytometry (reference value: 1.49 %); assay type: functional
[13] = Antiproliferative activity against HAF cells after 96 hrs by SRB assay; assay type: cell-based; settings: Homo sapiens
[14] = Selectivity index, ratio of IC50 for HAF cells to IC50 for human HT-29 cells; assay type: functional
[15] = Potency index, ratio of podophyllotoxin IC50 to compound IC50 for human T47D cells; assay type: functional
[16] = Selectivity index, ratio of IC50 for HAF cells to IC50 for human MDA-MB-231 cells; assay type: functional
[17] = test system: T47D; test: Induction of apoptosis in human T47D cells assessed as late apoptotic cells at 20 uM after 48 hrs by Annexin V-FITC/propidium iodide staining based flow cytometry (reference value: 2.72 %); assay type: functional
[18] = test system: T47D; test: Induction of apoptosis in human T47D cells assessed as late apoptotic cells at 10 uM after 48 hrs by Annexin V-FITC/propidium iodide staining based flow cytometry (reference value: 2.72 %); assay type: functional
[19] = test system: Mus musculus; test: Toxicity in nude mouse xenografted with human T47D cells assessed as effect on food and water withdrawal at 20 to 40 mg/kg/day, ip administered daily for 18 days measured every 3 days during compound dosing; assay type: organism-based; settings: in vivo
[20] = Antiproliferative activity against human T47D cells after 96 hrs by SRB assay; assay type: functional, cell-based
[21] = test system: T47D; test: Selectivity index, ratio of IC50 for HAF cells to IC50 for human T47D cells; assay type: functional
[22] = test system: T47D; test: Induction of apoptosis in human T47D cells assessed as early apoptotic cells at 20 uM after 48 hrs by Annexin V-FITC/propidium iodide staining based flow cytometry (reference value: 1.49 %); assay type: functional
[23] = Antiproliferative activity against human MCF7 cells after 96 hrs by SRB assay; assay type: functional, cell-based; settings: MCF7, 96 h
[24] = Antiproliferative activity against human HL60 cells after 96 hrs by SRB assay; assay type: functional, cell-based; settings: HL-60, 96 h
[25] = test system: Mus musculus; test: Acute toxicity in nude mouse xenografted with human T47D cells assessed as effect on the survival rate at 20 to 40 mg/kg/day, ip administered daily for 18 days measured on day 18 post last dose; assay type: organism-based; settings: in vivo, 432 h
[26] = Antitumor activity against human T47D cells xenografted in nude mouse assessed as tumor weight at 20 mg/kg/day, ip administered daily for 18 days measured every 3 days during compound dosing (reference value: 882 +/- 149 mg); assay type: functional
[27] = test system: DU-145; test: Selectivity index, ratio of IC50 for HAF cells to IC50 for human DU145 cells; assay type: functional
[28] = test system: T47D; test: Antimigratory activity in human T47D cells assessed as inhibition of cell migration at 20 uM after 12 hrs by crystal violet staining based transwell migration assay; assay type: functional
[29] = test system: PC-3; test: Selectivity index, ratio of IC50 for HAF cells to IC50 for human PC3 cells; assay type: functional
[30] = (§2) Inhibition of colony formation in human T47D cells after 7 days by crystal violet staining based assay; assay type: functional, cell-based; settings: 168 h
[31] = test system: T47D; test: as §2; assay type: functional, cell-based
[32] = Antiproliferative activity against human HT-29 cells after 96 hrs by SRB assay; assay type: functional, cell-based; settings: HT-29, 96 h
[33] = Antiproliferative activity against human DU145 cells after 96 hrs by SRB assay; assay type: functional, cell-based; settings: DU-145, 96 h
[34] = Antiproliferative activity against human PC3 cells after 96 hrs by SRB assay; assay type: functional, cell-based; settings: PC-3, 96 h
[35] = test system: HL-60; test: Selectivity index, ratio of IC50 for HAF cells to IC50 for human HL60 cells; assay type: functional
[36] = test system: T47D; test: Induction of apoptosis in human T47D cells assessed as early apoptotic cells at 10 uM after 48 hrs by Annexin V-FITC/propidium iodide staining based flow cytometry (reference value: 1.49 %); assay type: functional
[37] = test system: Mus musculus; test: Toxicity in nude mouse xenografted with human T47D cells assessed as incidence of impaired posture or movement at 20 to 40 mg/kg/day, ip administered daily for 18 days measured every 3 days during compound dosing; assay type: organism-based; settings: in vivo
[38] = test system: HCT-116; test: Selectivity index, ratio of IC50 for HAF cells to IC50 for human HCT116 cells; assay type: functional
[39] = Antitumor activity against human T47D cells xenografted in nude mouse assessed as tumor volume at 20 mg/kg/day, ip administered daily for 18 days measured every 3 days during compound dosing (reference value: 1220 +/- 127 mm3); assay type: functional

COc1cc2c(cc1C(=O)Nc1ccc(N(C)C)cc1)CC[C@H]1C(C)(C)[C@@H](O)CC[C@]21C
Activity [1]: 0.49%
Activity [2]: 401 mm3
Activity [3]: Non-Toxic
Activity [4]: Non-Toxic
EC50 [5]: 6.42 µM
Activity [6]: Dose-dependent effect
Activity [7]: 320 mg
Ratio IC50 [8]: 13.8
Activity [9]: Non-Toxic
IC50 [10]: 570 nM
IC50 [11]: 320 nM
Activity [12]: 4.31%
IC50 [13]: 4.54 µM
Ratio IC50 [14]: 13.8
Ratio IC50 [15]: 25
Ratio IC50 [16]: 13.8
Activity [17]: 1.29%
Activity [18]: 1.09%
Activity [19]: Non-Toxic
IC50 [20]: 10 nM
Ratio IC50 [21]: 13.8
Activity [22]: 24.58%
IC50 [23]: 280 nM
IC50 [24]: 40 nM
Activity [25]: Non-Toxic
Activity [26]: 550 mg
Ratio IC50 [27]: 13.8
Activity [28]: Active
Ratio IC50 [29]: 13.8
EC50 [30]: 2.56 nM
Activity [31]: Dose-dependent effect
IC50 [32]: 590 nM
IC50 [33]: 280 nM
IC50 [34]: 540 nM
Ratio IC50 [35]: 13.8
Activity [36]: 16.86%
Activity [37]: Non-Toxic
Ratio IC50 [38]: 13.8
Activity [39]: 654 mm3
